Literature values as cited in patent US11607129B2, “Combined positron emission tomography (PET)-electron paramagnetic resonance (EPR) imaging device” (West Virginia University, priority 2018, dated 2023).

Test system: mouse
Conditions: as confirmed by recent cytotoxicity studies; probe hydrophilic, remains extracellular

## phosphonated triarylmethyl radicals [pTAM]
  toxicity to the mouse: minimal toxicity
